Tests used:
PDE4B enzyme = molecular target: T1, PDE4B enzyme (Homo sapiens, UniProt Q07343); assay: PDE4 assay with pure PDE4B enzyme (Calbiochem); type: biochemical
T1 construct: purchased Calbiochem

LPS induced neutrophilia = LPS induced neutrophilia model for asthma and COPD; type: in vivo; settings: Wistar rats, BAL 4 h after LPS
Experimental: LPS Induced Neutrophilia Model for Asthma and COPD LPS induced neutrophilia in Wistar rats was performed using the protocol described in Pulm Pharmacol & Ther 17, 3, 133-140, 2004. Male Wistar rats were acclimatized to laboratory conditions five to seven days prior to the start of the experiment. They were randomly distributed to various groups based on body weight. Except normal group all the animals were exposed to LPS 100 μg/ml for 40 min. The rats were dosed with the test compound suspended in the vehicle containing 0.25% carboxymethylcellulose before half an hour of LPS exposure. BAL was performed 4 h after LPS exposure, total cell count and DLC was done and compared with control and the standard drug. Percentage Inhibition for neutrophilia was calculated.

TNF-α [1] = assay: In vitro measurement of TNF-α in human PBMC; type: cell-based
Experimental: In Vitro Measurement of TNF-α in Human Peripheral Blood Mononuclear Cells
This assay determines the effect of test compounds on the production of TNF a in human Peripheral Blood Mononuclear Cells (PBMC). Compounds were tested for their ability to inhibit the activity of TNF α in human PBMC. PBMC were isolated from blood (of healthy volunteers) using BD Vacutainer CPT™ (Cell preparation tube, BD Bio Science) and suspended in RPMI medium (Physiol. Res. 52, 593-598, 2003). The test compounds were pre-incubated with PBMC (0.5 million/incubation well) for 15 minutes at 37° C. and then stimulated with Lipopolysaccharide (Escherichia coli: B4; 1 μg/ml) for 18 hours at 37° C. in 5% CO2. The levels of TNF-α in the cell culture medium were estimated using enzyme-linked immunosorbent assay performed in a 96 well format as per the procedure of the manufacturer (Cayman Chemical, Ann Arbor, USA).

PDE4 = PDE4 activity (source human U937 cells); type: biochemical; settings: read-out: PDE4 inhibition IC50 (nm)
Experimental: PDE4 inhibition was measured by following a literature assay procedure (Cortizo J et al., Br J. Pharmacol., 1993, 108: 562-568. The assay method involves the following conditions.
Substrate: 1.01 μM [^3H] camp+camp
Pre-Incubation Time/Temperature: 15 minutes at 25° C.
Incubation Time/Temperature. 20 minutes at 25° C.
Incubation buffer: 50 mM Tris-HCl, pH 7.5, 5 mM MgCl2
Quantitation method: Quantitation of [^3H] Adenosine
Significance criteria: ≧50% of max stimulation or inhibition

TNF-α [2] = assay: LPS induced sepsis for measurement of TNF-α inhibition in mice; type: in vivo; settings: Mus musculus; TNF alpha inhibition in mice sepsis model
Experimental: LPS Induced Sepsis for Measurement of TNF-α Inhibition in Mice
The LPS induced sepsis model in mice was performed as described by Les sekut et al (J Lab Clin Med 1994; 124, 813-20). Female Swiss albino mice were selected and the body weights were equivalent within each group. The mice were fasted for 20 hours with free access to water. The mice were dosed orally with the test compound suspended in vehicle containing 0.5% Tween 80 in 0.25% Carboxy-methylcellulose sodium salt. The control mice were administered the vehicle alone. After 30 minutes of oral dosing, mice were injected with 500 μg of Lipopolysaccharide (Escherichia coli, LPS: B4 from Siga) in phosphate buffer saline solution into the intraperitoneal cavity of the mice. After 90 minutes of LPS administration mice were bled via retro-orbital sinus puncture. Blood samples were stored overnight at 4° C. Serum samples were collected by centrifuging the samples at 4000 rpm for 15 minutes at 4° C. Immediately the serum samples were analyzed for TNF-α levels using commercially available mouse TNF-α ELISA kit (Amersham Biosciences) and assay was performed by the manufacturer instruction.
ED50 Measurement of TNF Alpha Inhibition in Mice Sepsis Model

TPA induced dermatitis = assay: Psoriasis model, TPA induced dermatitis; type: in vivo; settings: mice, topical on the ears
Experimental: Inhibitory Activity in Psoriasis Model TPA induced dermatitis in mice was performed using the protocol described in Eur J Pharmacol 507, 253-259, 2005. Balb/c mice were acclimatized to laboratory conditions 5-7 days prior to the start of the experiment. They were randomly distributed to various groups based on body weight. The baseline ear thickness of the animal's both ears using thickness gauge was measured. For each animal 20 μl of that contains 2.5 μg of TPA was applied with help of micropipettor with disposable tips. Test compound was applied topically to both inner and outer surface of the both the ears i.e. left and right ear with acetone as control after 30 minutes 6 hours and 24 hours after application of TPA (20 μl). Ear thickness was measured after 6 and 24 hours in animals, while for ear weight ears were excised under anesthesia and weighed.

TNF-α [3] = assay: In vitro measurement of TNF-α in human whole blood; type: cell-based
Experimental: In Vitro Measurement of TNF-α in Human Whole Blood
This assay determines the effect of test compounds on the production of TNF-α in human whole blood. Compounds were tested for their ability to inhibit the activity of TNF-α in whole blood.
Heparanised blood from a healthy human volunteer was collected and diluted with RPMI 1640 incomplete medium (1:5 dilution). Diluted blood was aliquoted into 96 well plate 170 ul/well immediately. 20 ul of the drug of different concentrations was added to the respective wells with a control. The plate was incubated in 37° C. thermo mixer at 400 rpm for 60-70 minutes. After the incubation 10 ul of the LPS (from E. coli B4) was added to get the final concentration of 1 ug/well. The plate was again incubated in the 37° C. thermo mixer at 400 rpm 120 minutes in the thermo mixer and then left in the 37° C. CO2 incubator for two more hours so that the total stimulation time is four hours. The plasma was collected carefully without disturbing the pellet at the bottom and stored at −20° C. Then TNF-α levels were estimated using the R&D systems ELISA kit duoset kit (DY210).

T1 sequence (Q07343 whole entry, species assumed): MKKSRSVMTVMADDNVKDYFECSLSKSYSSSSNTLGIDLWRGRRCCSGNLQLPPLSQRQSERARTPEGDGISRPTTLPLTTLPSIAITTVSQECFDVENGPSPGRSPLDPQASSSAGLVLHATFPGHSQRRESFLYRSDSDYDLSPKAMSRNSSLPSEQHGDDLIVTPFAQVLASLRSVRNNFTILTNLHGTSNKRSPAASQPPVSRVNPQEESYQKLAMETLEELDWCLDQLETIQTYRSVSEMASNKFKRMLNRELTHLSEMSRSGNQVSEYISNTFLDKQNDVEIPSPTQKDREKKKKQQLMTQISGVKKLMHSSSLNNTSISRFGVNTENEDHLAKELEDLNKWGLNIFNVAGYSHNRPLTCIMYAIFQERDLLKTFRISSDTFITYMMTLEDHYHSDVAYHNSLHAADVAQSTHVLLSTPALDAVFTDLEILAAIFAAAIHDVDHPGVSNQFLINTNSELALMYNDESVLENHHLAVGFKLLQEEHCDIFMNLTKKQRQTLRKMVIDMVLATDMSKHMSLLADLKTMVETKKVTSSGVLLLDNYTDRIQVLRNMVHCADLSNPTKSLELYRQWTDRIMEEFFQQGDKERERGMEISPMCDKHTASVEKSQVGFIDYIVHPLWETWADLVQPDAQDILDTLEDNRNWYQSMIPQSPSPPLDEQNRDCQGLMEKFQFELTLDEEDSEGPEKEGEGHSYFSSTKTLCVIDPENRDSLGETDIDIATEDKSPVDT

- inhibition at 10 µM (PDE4B enzyme): 76.1%
- IC50 (PDE4): 7 nM
Compound: NS(=O)(=O)c1cccc(-c2c(-c3ccccc3)nc(C(F)(F)F)nc2N2CCOCC2)c1 [Example 98, 3-[4-Morpholin-4-yl-2-(trifluoromethyl)-6-phenyl-pyrimidin-5-yl]benzenesulfonamide]
- LPS induced neutrophilia % inhibition at 10 mg/kg (LPS induced neutrophilia): 31.73%
- inhibition at 1 µM (TNF-α [1]; Conc. (1 μM)): 94.1%
- inhibition at 10 µM (TNF-α [1]; Conc. (10 μM)): 94.6%
- ED50 (TNF-α [2]): 0.01 mg/kg
- Psoriasis-acute TPA induced dermatitis % inhibition Ear Wt (TPA induced dermatitis): 11.84%
- Psoriasis-acute TPA induced dermatitis % inhibition Ear thickness (TPA induced dermatitis): 41.10%
- inhibition at 1 µM (TNF-α [3]; Conc. (1 μM)): 40.6%
- inhibition at 10 µM (TNF-α [3]; Conc. (10 μM)): 62%
